Measurements from US20130331345A1, “PUERARIN HYDRATES, PREPARATION METHODS AND USES THEREOF” (priority 2010, published 2013).

Legend:
[1] = Hygroscopicity test according to the Pharmacopoeia of the People's Republic of China; format: physicochemical; conditions: 48 h, 25° C., relative humidity 75%; monohydrate
Description: (§1) The sample of the puerarin hydrate above (prepared by method of Example 1) and anhydrous puerarin (anhydrous puerarin was prepared by: drying the hydrate as prepared in Example 1 at 90-105° C. in the presence of phosphorus pentoxide under vacuum for 24-72 hours or more to obtain an anhydrous puerarin, and the water content of anhydrous puerarin was usually lower than 1.0% as measured by Karl Fisher method) were sealed in penicillin bottles to perform accelerated stability test (chromatography conditions: chromatography column: C18 (150 mm×4.6 mm, 5 μm); mobile phase: 0.1% citric acid solution-methanol (75:25); flow rate: 1 ml/min; temperature: room temperature; detection wavelength: 250 nm). […] Hygroscopicity test was performed according to the Pharmacopoeia of the People's Republic of China: about 5 g of anhydrous puerarin and the crystalline hydrate of the present invention were taken, placed in dry watch glasses with constant weight, weighed precisely. Samples were taken separately at 0 h and 48 h of the test at 25° C. and relative humidity of 75%, and hygroscopicity weight gain percentages were calculated.

[2] = Accelerated stability test (40° C., RH75%), sealed in penicillin bottles; format: physicochemical; conditions: accelerated, 40° C.
Description: as §1

[3] = system: arrhythmia induced by aconitine; assay: Effects on arrhythmia caused by aconitine in rats; format: in vivo, SD rats; conditions: 200 mg · kg^−1 intravenous, n = 10, p < 0.05 vs physiological saline, monohydrate
Description: 20 SD rats, male and female, body weight 185±19 g, randomly divided into 2 groups, separately administrated via intravenous injection with physiological saline, puerarin monohydrate (prepared by method of Example 1) (which was added with cosolvent to form an injectable solution) 200 mg·kg^−1. The rats were anesthetized with 3% pentobarbital sodium 40 mg·kg^−1, and fixed in supine position on operating table. The rats were subjected to injection via sublingual vein, after 6 min, subjected to intravenous injection of 0.0025% aconitine at a constant rate, 2 μg·min^−1 (0.08 ml·min^−1), the time of ventricular premature beat (VP), ventricular tachycardia (VT), ventricular fibrillation (VF) and cardiac arrest (CA) were recorded, and corresponding dosages were calculated.

[4] = system: chronic ocular hypertension; assay: Effects on chronic ocular hypertension of rabbits (dexamethasone model); format: in vivo; conditions: within 24 hours, puerarin hydrate 1% (W/V), betaxolol 0.5% (W/V), monohydrate
Description: Chronic Ocular Hypertension Models: 32 rabbits, half male and half female, were subjected to sub-conjunctive injection with 0.5 mg of dexamethasone under corneal limbus, once every other day, for consecutive 3 weeks, to obtain chronic ocular hypertension models, then randomly divided into physiological saline group, betaxolol group [0.5% (W/V)], puerarin hydrate group [1% (W/V)]. The maximum decrease of intraocular pressure was measured within 24 hours.

O=c1c(-c2ccc(O)cc2)coc2c([C@@H]3O[C@H](CO)[C@@H](O)[C@H](O)[C@H]3O)c(O)ccc12 [Sample 1, puerarin monohydrate]
In comparison with 0 h, weight gain, % [1]: 0.12%
Marked content (%) ([2]; sampling time 0 month): 99.5%
Property ([2]; sampling time 0 month): off-white powder
Related substance (%) ([2]; sampling time 0 month): <2%
Marked content (%) ([2]; sampling time 1 month): 99.3%
Property ([2]; sampling time 1 month): off-white powder
Related substance (%) ([2]; sampling time 1 month): <2%
Marked content (%) ([2]; sampling time 2 month): 99.6%
Property ([2]; sampling time 2 month): off-white powder
Related substance (%) ([2]; sampling time 2 month): <2%
Marked content (%) ([2]; sampling time 3 month): 99.4%
Property ([2]; sampling time 3 month): off-white powder
Related substance (%) ([2]; sampling time 3 month): <2%
Marked content (%) ([2]; sampling time 6 month): 99.3%
Property ([2]; sampling time 6 month): off-white powder
Related substance (%) ([2]; sampling time 6 month): <2%
Dose of aconitine causing cardiac arrest (CA) ([3]; listed as PW): 0.0951 ± 0.0086 mg/kg
Dose of aconitine causing ventricular fibrillation (VF) ([3]; listed as PW): 0.0635 ± 0.0077 mg/kg
Dose of aconitine causing ventricular premature beat (VP) ([3]; listed as PW): 0.0331 ± 0.0073 mg/kg
Dose of aconitine causing ventricular tachycardia (VT) ([3]; listed as PW): 0.0449 ± 0.0072 mg/kg
Dose of aconitine causing cardiac arrest (CA) [3]: significantly increased
Dose of aconitine causing ventricular fibrillation (VF) [3]: significantly increased
Dose of aconitine causing ventricular premature beat (VP) [3]: significantly increased
Dose of aconitine causing ventricular tachycardia (VT) [3]: significantly increased
Maximum decrease of intraocular pressure (mmHg) [4]: 2.6 mmHg
